Legend:
[1] = Mouse pharmacokinetic study, single oral dose, plasma by LC-MS/MS; assay type: in vivo, female NOD/SCID mice; details: for AUClast / Cmax / T1/2 / Tmax: 300 mg/kg single oral dose, plasma, 300 mg/kg
Procedure: Mouse pharmacokinetic (PK) studies were conducted using Crystalline Form A of 6-(4-cyclopropyl-6-methoxypyrimidin-5-yl)-1-(4-(1-isopropyl-4-(trifluoromethyl)-1H-imidazol-2-yl)benzyl)-1H-pyrazolo[3,4-d]pyrimidine, as disclosed herein and Crystalline Form 2 of a gentisic acid co-crystal of 6-(4-cyclopropyl-6-methoxypyrimidin-5-yl)-1-(4-(1-isopropyl-4-(trifluoromethyl)-1H-imidazol-2-yl)benzyl)-1H-pyrazolo[3,4-d]pyrimidine, as disclosed herein.
The PK studies consisted of single dose oral exposure studies, which were conducted in female NOD/SCID mice (approximately 6 to 8 weeks, and 20-30 g at the time of study) using a compound dose of 300 mg/kg and a dosing volume of 10 mL/kg. The mice were fasted overnight prior to dosing. Animals had free access to food and water post-dosing.
Blood was sampled serially from the dorsal metatarsal vein at pre-dose, 0.25, 0.5, 1, 2, 4, 8, 24, 48 (crystalline Form 2 only), and 72 hours (crystalline Form 2 only) post PO dosing. Approximately 0.03 mL blood was collected at each time point and centrifuged at 4000 G for 5 minutes at 4° C. to provide plasma. The plasma samples were then stored in a freezer at −75±15° C. prior to LC-MS/MS analysis.
Concentrations of each compound in the plasma samples were then analyzed using an LC-MS/MS method. WinNonlin (Phoenix™, version 6.1) or other similar software was used for PK calculations. The following PK parameters were calculated, whenever possible from the plasma concentration versus time data: Cmax, Tmax, T1/2, AUCinf, and AUClast. The PK data were described using descriptive statistics such as mean with standard deviation.

[2] = Distribution in mouse brain and plasma after repeated oral dosing; assay type: in vivo, female NOD SCID mice; details: 100 or 300 mg/kg oral for 28 days
Procedure: Female NOD SCID mice of an age between 6-8 weeks and a body weight range of 18-22 g were purchased from Beijing Anikeeper Biotech Co, Ltd. Animals were habituated to the environment for at least 7 days prior to study initiation. Mice were dosed with Crystalline Form 2 at either 100 mg/kg or 300 mg/kg dose levels via oral gavage for 28 days. After 24 hours following 27 doses of compound, three mice were euthanized via CO2. After four hours following 28 doses of compound, three mice were euthanized via CO2. At each time point the whole brain was collected. In addition, approximately 0.03 mL of blood was collected at each time point and centrifuged at 4000G for 5 minutes at 4° C. to provide plasma. Samples were then stored in a freezer at −75±15° C. prior to LC-MS/MS analysis. Concentrations of compound in brain homogenates (ng/g) and plasma (ng/ml) were then analyzed using an LC-MS/MS method. The PK data were described using descriptive statistics such as mean with standard deviation.

[3] = Distribution in rat brain and plasma after single oral dose; assay type: in vivo, Sprague Dawley rats; details: 100 mg/kg single oral dose; for AUC0-∞: brain
Procedure: Male and female Sprague Dawley rats were purchased from Beijing Anikeeper Biotech Co, Ltd. Animals were habituated to the environment prior to study initiation. Rats were dosed with single dose of 100 mg/kg crystalline Form 2 via oral gavage. The rats were fasted overnight prior to dosing. Animals had access to food from 2 hours post dose and free access to water throughout the study. Approximately 0.2 mL of blood was sampled via jugular vein at each time point and centrifuged at 4000G for 5 minutes at 4° C. to provide plasma. Samples were then stored in a freezer at −75±15° C. prior to LC-MS/MS analysis. Whole brain was collected after hemoperfusion and snap frozen on dry ice prior to storage at −75±15° C. Prior to LC-MS/MS analysis whole brains were weighed and homogenized with water by tissue weight (g) to water volume (ml) ratio 1:3 before analysis. Actual concentration is the measured value multiplied by the dilution factor. The PK data were described using descriptive statistics such as mean with standard deviation.

Row | AUClast ([1]; Mean) | Cmax ([1]; Mean) | T1/2 ([1]; Mean) | Tmax ([1]; Mean) | AUClast ([1]; Mouse 7) | Cmax ([1]; Mouse 7) | AUClast ([1]; Mouse 8) | Cmax ([1]; Mouse 8) | T1/2 ([1]; Mouse 8) | Tmax ([1]; Mouse 8) | AUClast ([1]; Mouse 9) | Cmax ([1]; Mouse 9) | T1/2 ([1]; Mouse 9) | Tmax ([1]; Mouse 9) | mouse oral exposure levels compared to crystalline Form A (freebase) ([1]; about 300 mg/kg) | accumulation of the drug in the brain after repeated dosing [2] | drug level in the brain tissue [2] | drug level in the brain tissue ([3]; male and female rats) | AUC0-∞ ([3]; Female rats) | AUC0-∞ ([3]; Male rats) | Compound
1 | 752.45 µg·h/mL | 28900 ng/mL | 4.17 h | 10.7 h | 827.348 µg·h/mL | 28800 ng/mL | 835.713 µg·h/mL | 28900 ng/mL | 4.22 h | 12.0 h | 594.288 µg·h/mL | 29000 ng/mL | 4.27 h | 12.0 h | higher exposure levels | no apparent accumulation | measurable drug level | measurable drug level | 120933 ng·h/g | 60596 ng·h/g | COc1ncnc(C2CC2)c1-c1ncc2cnn(Cc3ccc(-c4nc(C(F)(F)F)cn4C(C)C)cc3)c2n1 [Crystalline Form 2, 6-(4-cyclopropyl-6-methoxypyrimidin-5-yl)-1-(4-(1-isopropyl-4-(trifluoromethyl)-1H-imidazol-2-yl)benzyl)-1H-pyrazolo[3,4-d]pyrimidine]
2 | 60.663 µg·h/mL | 3697 ng/mL | 12.7 h | 5.33 h | 72.653 µg·h/mL | 4450 ng/mL | 40.678 µg·h/mL | 2890 ng/mL |  | 4.00 h | 68.658 µg·h/mL | 3750 ng/mL | 18.6 h | 4.00 h |  |  |  |  |  |  | COc1ncnc(C2CC2)c1-c1ncc2cnn(Cc3ccc(-c4nc(C(F)(F)F)cn4C(C)C)cc3)c2n1 [Crystalline Form A, 6-(4-cyclopropyl-6-methoxypyrimidin-5-yl)-1-(4-(1-isopropyl-4-(trifluoromethyl)-1H-imidazol-2-yl)benzyl)-1H-pyrazolo[3,4-d]pyrimidine]

Reference: patent US20250161306A1, “UBIQUITIN-SPECIFIC-PROCESSING PROTEASE 1 (USP1) INHIBITORS FOR THE TREATMENT OF SOLID TUMORS” (KSQ Therapeutics, Inc., priority 2022, published 2025)
